US8729091B2, “4-phenoxy-nicotinamide or 4-phenoxy-pyrimidine-5-carboxamide compounds” (Hoffmann-La Roche Inc., priority 2010, dated 2014)
pEC50: −log10 of the molar value.

Each compound was assayed against T1, human GPBAR1 receptor (Homo sapiens, UniProt Q8TDU6) (assay: functional cAMP assay in CHO-dhfr(minus) cells expressing human GPBAR1 receptors). Conditions: cAMP increase (TR-FRET) in CHO-dhfr(minus) cells expressing human GPBAR1; compounds incubated 30 min at 30° C.
T1 construct: expressed in transfected cells
T1 sequence (Q8TDU6 1-330): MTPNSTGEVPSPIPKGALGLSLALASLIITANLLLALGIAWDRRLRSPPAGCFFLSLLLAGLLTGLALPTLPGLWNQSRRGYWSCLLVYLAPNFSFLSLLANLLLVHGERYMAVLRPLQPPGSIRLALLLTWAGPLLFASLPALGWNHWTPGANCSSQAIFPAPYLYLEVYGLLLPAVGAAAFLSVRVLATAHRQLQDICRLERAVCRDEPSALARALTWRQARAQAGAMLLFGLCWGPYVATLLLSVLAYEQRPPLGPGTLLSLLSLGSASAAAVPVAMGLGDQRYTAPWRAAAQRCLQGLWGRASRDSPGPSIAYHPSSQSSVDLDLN
Type: cell-based
Procedure: The final clone was verified by DNA sequence analysis. The plasmid was transfected into CHO cells deficient in dihydrofolate reductase activity (CHO-dhfr−) using Lipofectamine plus (Invitrogen). Clones were isolated in limited dilution conditions and identified by activities in the cAMP assay using lithocholic acid as agonist.
The growth medium was exchanged with Krebs Ringer Bicarbonate buffer with 1 mM IBMX and incubated at 30° C. for 30 min. Compounds were added to a final assay volume of 100 μl and incubated for 30 min at 30° C. […] The time-resolved energy transfer is measured by a TRF reader (Evotec Technologies GmbH, Hamburg Germany), equipped with a ND:YAG laser as excitation source.
EC50 values were determined using Activity Base analysis (ID Business Solution, Limited). […] Specificity for GPBAR1 was tested in non-transfected CHO cells in the same assay as above.

pEC50 | SMILES
7.40 | O=C(NCCO)c1cc(Cl)c(Oc2ccncc2C(=O)N2CCN(C3CC3)c3ccccc32)cc1Cl [Example 49, 2,5-Dichloro-4-[3-(4-cyclopropyl-3,4-dihydro-2H-quinoxaline-1-carbonyl)-pyridin-4-yloxy]-N-(2-hydroxy-ethyl)-benzamide]
7.92 | O=C(c1cnccc1Oc1cc(Cl)c(OCCO)cc1Cl)N1CCN(C2CC2)c2ccccc21 [Example 62, (4-Cyclopropyl-3,4-dihydro-2H-quinoxalin-1-yl)-{4-[2,5-dichloro-4-(2-hydroxy-ethoxy)-phenoxy]-pyridin-3-yl}-methanone]
7.40 | CN(C)c1ccccc1N(C)C(=O)c1cnccc1Oc1cc(Cl)ccc1Cl [Example 16, 4-(2,5-Dichloro-phenoxy)-N-(2-dimethylamino-phenyl)-N-methyl-nicotinamide]
6.70 | O=C(O)CCCNC(=O)c1cc(Cl)c(Oc2ccncc2C(=O)N2CCN(C3CC3)c3ccccc32)cc1Cl [Example 40, 4-{2,5-Dichloro-4-[3-(4-cyclopropyl-3,4-dihydro-2H-quinoxaline-1-carbonyl)-pyridin-4-yloxy]-benzoylamino}-butyric acid]
5.77 | CN(C(=O)c1cnccc1Oc1cc(Cl)ccc1Cl)c1cc(F)c(Cl)cc1N(C)C1CC1 [Example 25, N-[4-Chloro-2-(cyclopropyl-methyl-amino)-5-fluoro-phenyl]-4-(2,5-dichloro-phenoxy)-N-methyl-nicotinamide]
6.40 | Cc1cc(Oc2cc(Cl)c(C(=O)NCc3nnn[nH]3)cc2Cl)c(C(=O)N2CCN(C3CC3)c3ccccc32)cn1 [Example 72, 2,5-Dichloro-4-[5-(4-cyclopropyl-3,4-dihydro-2H-quinoxaline-1-carbonyl)-2-methyl-pyridin-4-yloxy]-N-(1H-tetrazol-5-ylmethyl)-benzamide]
6.52 | CS(=O)(=O)N1CCN(C(=O)c2cnccc2Oc2cc(Cl)ccc2Cl)c2ccccc21 [Example 7, [4-(2,5-Dichloro-phenoxy)-pyridin-3-yl]-(4-methanesulfonyl-3,4-dihydro-2H-quinoxalin-1-yl)-methanone]
6.40 | CC(C)(Oc1cc(Cl)c(Oc2ccncc2C(=O)N2CCN(C3CC3)c3ccccc32)cc1Cl)C(=O)O [Example 61, 2-{2,5-Dichloro-4-[3-(4-cyclopropyl-3,4-dihydro-2H-quinoxaline-1-carbonyl)-pyridin-4-yloxy]-phenoxy}-2-methyl-propionic acid]
5.96 | O=C(c1cc(Cl)c(Oc2ccncc2C(=O)N2CCN(C3CC3)c3ccccc32)cc1Cl)N(CCO)CCO [Example 50, 2,5-Dichloro-4-[3-(4-cyclopropyl-3,4-dihydro-2H-quinoxaline-1-carbonyl)-pyridin-4-yloxy]-N,N-bis-(2-hydroxy-ethyl)-benzamide]
7.40 | O=C(Nc1nnn[nH]1)c1cc(Cl)c(Oc2ccncc2C(=O)N2CCN(C3CC3)c3ccccc32)cc1Cl [Example 38, 2,5-Dichloro-4-[3-(4-cyclopropyl-3,4-dihydro-2H-quinoxaline-1-carbonyl)-pyridin-4-yloxy]-N-(1H-tetrazol-5-yl)-benzamide]

The next lines start with the compound.

SMILES | pEC50
CN(CCS(=O)(=O)O)C(=O)c1cc(Cl)c(Oc2ccncc2C(=O)N2CCN(C3CC3)c3ccccc32)cc1Cl [Example 36, 2-({2,5-Dichloro-4-[3-(4-cyclopropyl-3,4-dihydro-2H-quinoxaline-1-carbonyl)-pyridin-4-yloxy]-benzoyl}-methyl-amino)-ethanesulfonic acid] | 6.52
CN(C)c1ncccc1N(C)C(=O)c1cnccc1Oc1cc(Cl)ccc1Cl [Example 23, 4-(2,5-Dichloro-phenoxy)-N-(2-dimethylamino-pyridin-3-yl)-N-methyl-nicotinamide] | 6.70
CN(CC(=O)O)C(=O)c1cc(Cl)c(Oc2ccncc2C(=O)N2CCN(C3CC3)c3ccccc32)cc1Cl [Example 32, ({2,5-Dichloro-4-[3-(4-cyclopropyl-3,4-dihydro-2H-quinoxaline-1-carbonyl)-pyridin-4-yloxy]-benzoyl}-methyl-amino)-acetic acid] | 6.05
CCOC(=O)c1nnc(NC(=O)c2cc(Cl)c(Oc3ccncc3C(=O)N3CCN(C4CC4)c4ccccc43)cc2Cl)s1 [Example 47, 5-{2,5-Dichloro-4-[3-(4-cyclopropyl-3,4-dihydro-2H-quinoxaline-1-carbonyl)-pyridin-4-yloxy]-benzoylamino}-[1,3,4]thiadiazole-2-carboxylic acid ethyl ester] | 7.00
O=C(O)COc1cc(Cl)c(Oc2ccncc2C(=O)N2CCN(C3CC3)c3ccccc32)cc1Cl [Example 59, {2,5-Dichloro-4-[3-(4-cyclopropyl-3,4-dihydro-2H-quinoxaline-1-carbonyl)-pyridin-4-yloxy]-phenoxy}-acetic acid] | 6.30
COC(=O)c1cc(Cl)c(Oc2ccncc2C(=O)N2CCN(C3CC3)c3ccccc32)cc1C(=O)OC [Example 28, 4-Chloro-5-[3-(4-cyclopropyl-3,4-dihydro-2H-quinoxaline-1-carbonyl)-pyridin-4-yloxy]-phthalic acid dimethyl ester] | 8.40
COC(=O)CN(C)C(=O)c1cc(Cl)c(Oc2ccncc2C(=O)N2CCN(C3CC3)c3ccccc32)cc1Cl [Example 31, ({2,5-Dichloro-4-[3-(4-cyclopropyl-3,4-dihydro-2H-quinoxaline-1-carbonyl)-pyridin-4-yloxy]-benzoyl}-methyl-amino)-acetic acid methyl ester] | 7.00
O=C(c1cnccc1Oc1cc(Cl)ccc1Cl)N1CCN(CC2CC2)c2ccccc21 [Example 6, (4-Cyclopropylmethyl-3,4-dihydro-2H-quinoxalin-1-yl)-[4-(2,5-dichloro-phenoxy)-pyridin-3-yl]-methanone] | 8.52
O=C(c1c[n+]([O-])ccc1Oc1cc(Cl)ccc1Cl)N1CCCc2ccccc21 [Example 10, [4-(2,5-Dichloro-phenoxy)-1-oxy-pyridin-3-yl]-(3,4-dihydro-2H-quinolin-1-yl)-methanone] | 6.15
COc1ccccc1N(C)C(=O)c1cnccc1Oc1cc(Cl)ccc1Cl [Example 14, 4-(2,5-Dichloro-phenoxy)-N-(2-methoxy-phenyl)-N-methyl-nicotinamide] | 7.00
CCOC(=O)COc1cc(Cl)c(Oc2ccncc2C(=O)N2CCN(C3CC3)c3ccccc32)cc1Cl [Example 58, {2,5-Dichloro-4-[3-(4-cyclopropyl-3,4-dihydro-2H-quinoxaline-1-carbonyl)-pyridin-4-yloxy]-phenoxy}-acetic acid ethyl ester] | 7.52
O=C(c1cncnc1Oc1cc(Cl)ccc1Cl)N1CCCc2cc(F)ccc21 [Example 77, [4-(2,5-Dichloro-phenoxy)-pyrimidin-5-yl]-(6-fluoro-3,4-dihydro-2H-quinolin-1-yl)-methanone] | 6.40
N#Cc1cc(Cl)c(Oc2ccncc2C(=O)N2CCN(C3CC3)c3ccccc32)cc1Cl [Example 56, 2,5-Dichloro-4-[3-(4-cyclopropyl-3,4-dihydro-2H-quinoxaline-1-carbonyl)-pyridin-4-yloxy]-benzonitrile] | 8.52
